From patent US9867811B2, “Method of treating atherosclerosis in high triglyceride subjects” (NOVARTIS AG, priority 2011, dated 2018)
Where two headings read alike, the source gives them in different places.

Tests used:
CETP [1] = biological target: T1, CETP (Homo sapiens, UniProt P11597); test: In vitro CETP activity assay in human plasma (serum pools of differing triglyceride level); format: biochemical; conditions: for IC50: human serum pool
T1 construct: Human serum samples were obtained from the Novartis Institutes for BioMedical Research donor program; tissue Novartis donor program; Bioreclamation (Westbury, N.Y.); Uniglobe (Reseda, Calif.); host or cells: pooled human donor serum
T1 sequence (P11597 18-493): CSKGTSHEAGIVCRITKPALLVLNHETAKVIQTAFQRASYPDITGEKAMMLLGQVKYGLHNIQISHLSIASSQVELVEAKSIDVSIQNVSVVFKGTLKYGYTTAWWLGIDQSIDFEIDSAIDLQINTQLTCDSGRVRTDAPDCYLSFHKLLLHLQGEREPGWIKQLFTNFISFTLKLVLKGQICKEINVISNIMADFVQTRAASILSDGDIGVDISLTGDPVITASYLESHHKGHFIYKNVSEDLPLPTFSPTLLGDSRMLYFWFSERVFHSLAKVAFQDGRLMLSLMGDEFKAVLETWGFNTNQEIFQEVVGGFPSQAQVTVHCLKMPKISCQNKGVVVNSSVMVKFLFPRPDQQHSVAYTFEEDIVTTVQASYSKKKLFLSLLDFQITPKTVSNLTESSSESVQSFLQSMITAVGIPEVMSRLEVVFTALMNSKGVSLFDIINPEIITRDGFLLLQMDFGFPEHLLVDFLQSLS
Description: Pro-apoA-1 containing microemulsion as a donor particle was prepared following previous report (J. Biol. Chem., 280:14918-22). Glyceryl trioleate (500 ug, Sigma-Aldrich, Cat. No. T7140), 3-sn-phosphatidylcholine (4680 ug, Sigma, Cat. No. P2772), and cholesteryl BODIPY FL 012 (2 mg, Invitrogen, CA, Cat. No. C-3927MP) were dissolved in 1.5 mL of chloroform. The solution was evaporated, and residual solvent was removed under vacuum for more than 1 hr at room temperature. The dried lipid mixture was dissolved in 7 ml of the assay buffer (50 mM Tris-HCl (pH 7.4) containing 150 mM NaCl and 2 mM EDTA) and sonicated in water bath for 1 hr. The solution was split into two tubes of 3.5 ml each. Each tube was sonicated at 50° C. with a microtip (MICROSON™ ULTRASONIC CELL DISRUPTOR, Misonix, Farmingdale, N.Y.) at output power 006 for 10 min (every other 25 seconds). The solution was cooled to 40° C. and 400 ug of pro-apoA-1 was added to each tube (total volume of 4 mL). Then, the solution was sonicated at output power 004 for 20 min (every other 30 seconds). Final Concentration: Glyceryl Tiroleate: 62.5 ug/ml, PC: 585 ug/ml, Bodipy CE: 250 ug/ml, Pro-apoA-1: 100 ug/ml. Centrifuge solution at 5200×g for 5 minutes and store the supernatant at 4′C.
Human serum samples were obtained from the Novartis Institutes for BioMedical Research donor program (normal triglyceride samples) or purchased from Bioreclamation (Westbury, N.Y.) or Uniglobe (Reseda, Calif.). General requirements for human serum donors included: male gender, 20-55 years of age, not currently on a lipid altering medication, non-fasting at time of blood collection, and a total cholesterol level between 200-300 mg/dL. Donor samples were selected primarily on the basis of serum triglyceride level, using the following classifications: normal triglycerides (<150 mg/dL); high triglycerides (300-500 mg/dL); and very high triglycerides (750-1200 mg/dL). A total of 4 individual serum samples from each classification were used in these experiments. For each of the 3 triglyceride classifications, two serum sample pools were prepared. The mean plasma triglyceride concentrations (mg/dL) for the pools were: Normal: 101.35; High: 347.5; Very high 1, 868.45; Very high 2, 1269.35.
Donor solution is prepared by a dilution of donor microemulsion with assay buffer (1.7 ul donor+8.3 ul Buffer). Human serum (25 μL), assay buffer (14 μL) and 50× test compound dissolved in 100% dimethylsulfoxide (1 μL) are added to each well of 384 well black, clear-bottom plate (NUNC. Thermo Fisher #242764). The reaction is started by the addition of donor solution (10 μL) into each well. Fluorescence intensities are measured every 10 min at 37° C. with excitation wave length of 485 nm and emission wavelength of 515 nm over an 80 minute period, using a SpectraMax M5 from Molecular Devices (Sunnyvale, Calif.). The CETP activity (RFU/min) is defined as the change of fluorescence intensity from 40 to 70 min. Percent CETP inhibition is calculated as follows: ((100% Act−Wellcmpnd)/100% Act))*100. IC50 values were calculated with GraphPad Prism 5 software.

CETP [2] = test: Ex vivo CETP activity in plasma of hamsters (saline or Triton WR-1339 treated); conditions: hamster; for Inhibition of CETP activity, lower dose group, Triton WR-1339 group / Inhibition of CETP activity, lower dose group, saline group: oral gavage: Torcetrapib 5 mg/kg, Anacetrapib 1.5 mg/kg, Example 49 1.5 mg/kg, Example 8 0.75 mg/kg; for Inhibition of CETP activity, lower dose group, Triton WR-1339 group / Inhibition of CETP activity, higher dose group, Triton WR-1339 group: Triton WR-1339 100 mg/kg i.v.; for Inhibition of CETP activity, lower dose group, Triton WR-1339 group: not significant vs vehicle; for Inhibition of CETP activity, lower dose group, saline group / Inhibition of CETP activity, higher dose group, saline group: saline i.v.; for Inhibition of CETP activity, higher dose group, Triton WR-1339 group / Inhibition of CETP activity, higher dose group, saline group: oral gavage: Torcetrapib 10 mg/kg, Anacetrapib 3 mg/kg, Example 49 3 mg/kg, Example 8 1.5 mg/kg
Description: Nine- to ten-week-old, male golden Syrian hamsters were purchased from Japan SLC Inc. (Shizuoka, Japan). Animals underwent a more than 1-week acclimation period under the following conditions: 8:00/20:00 light/dark cycle, room temperature 23±2° C. […] During this time, animals received filtered (0.5 μm) water and a standard chow diet ad libitum.
Whole blood samples were collected using a heparin-washed syringe (Heparin sodium injection “Ajinomoto”; Ajinomoto, Tokyo, Japan) from the abdominal vein by venipuncture under isoflurane (Abbott Japan Co. Ltd.) inhalant anesthesia. After centrifugation at 15,000 rpm for 10 min at 4° C., heparinized plasma was prepared and stored at −80° C. until use.
CETP activity (RFU/min) was defined as the change in fluorescence intensity from 30 to 90 min.
The effect of an acute increase of plasma triglycerides in vivo (acute increase in triglyceride-rich particles) on the ability of Torcetrapib to alter plasma CETP activity, triglyceride and total cholesterol levels was investigated. Torcetrapib at doses of 3, 10 or 30 mg/kg or vehicle was administered once by gavage to hamsters fed a standard chow diet.
Compound or vehicle was administered once by gavage to hamsters fed a standard chow diet.

Compound	IC50 (CETP [1]; TG = 101.35 mg/dL (normal), read-out: CETP IC50 (nM) TG = 101.35 mg/dL) [nM]	IC50 (CETP [1]; TG = 374.5 mg/dL (high), read-out: CETP IC50 (nM) TG = 374.5 mg/dL) [nM]	IC50 (CETP [1]; TG = 1269.35 mg/dL (very high 2), read-out: CETP IC50 (nM) TG = 1269.35 mg/dL) [nM]	Inhibition of CETP activity, lower dose group, Triton WR-1339 group (CETP [2]) [%]	Inhibition of CETP activity, lower dose group, saline group (CETP [2]) [%]	Inhibition of CETP activity, higher dose group, Triton WR-1339 group (CETP [2]) [%]	Inhibition of CETP activity, higher dose group, saline group (CETP [2]) [%]	Retention of CETP inhibitory activity in plasma from hypertriglyceridemic human subjects (CETP [1]; in vitro, plasma from subjects with elevated triglycerides)
CC[C@@H]1C[C@H](N(Cc2cc(C(F)(F)F)cc(C(F)(F)F)c2)c2ncc(-c3cnn(C)c3)cn2)C[C@H](CC)N1C(=O)O[C@H]1CC[C@H](C(=O)O)CC1 [Example 8]	88.4	51.9	61.4	20	72	47	79	
COc1cc(F)c(C(C)C)cc1-c1ccc(C(F)(F)F)cc1CN1C(=O)O[C@H](c2cc(C(F)(F)F)cc(C(F)(F)F)c2)[C@@H]1C [Anacetrapib, reference compound]				8	56	13	78	does not retain its potency
